Ki and pKi data for 13 molecules are collected here from publication PMC11516055, “From Static to Dynamic Structures: Improving Binding Affinity Prediction with Graph‐Based Deep Learning” (Advanced Science, 2024).

The first test has as its target T1, HSP90 (9-236) (Homo sapiens, UniProt P07900).
T1 construct: HSP90 (9‐236) was cross‐linked on the surface of the Series S Sensor Chip CM5
Briefly: Surface plasmon resonance (SPR) measurement of Ki on immobilised HSP90 (9-236). The format is binding. To be noted: Biacore S200, HSP90 (9-236) on CM5 chip, 1 × PBS with 5% DMSO. From the text:
Next, we performed docking on HSP90 against the ChemBridge DIVERSet‐EXP library, which contains 50,000 small molecules that cover a diverse pharmacophore space. The docked conformers were obtained using Autodock Vina, a widely used open‐source docking software.^[ [16], [60] ^] The reference protein‐ligand structure (PDB ID: 2xdl) was chosen from the test set, CASF‐2016, to identify the binding pocket. Then, the docked poses were used to score and rank the molecules based on the Dynaformer predictions. After that, the top‐ranked compounds were filtered and visually inspected for prioritization, following the approach and criteria described in the literature^[ [7], [61] ^] (see Experimental Section for details). To ensure the fairness of prioritization, we created a pool consisting of molecules among the top 10% from both Dynaformer and the original scoring function in Autodock Vina. From the pool, 20 molecules were chosen without knowing their rankings. Finally, surface plasmon resonance (SPR) experiments were conducted for each of the 20 molecules to measure the inhibition constant K i . In total, 12 of the 20 molecules had measurable binding affinities.
Finally, the binding affinities of the above 20 molecules were experimentally validated. Surface plasmon resonance (SPR) measurements were performed by the Biacore S200 instrument (GE Healthcare Life Sciences). HSP90 (9‐236) was cross‐linked on the surface of the Series S Sensor Chip CM5 (GE Healthcare) at pH 4.0 by an amine coupling kit with 1‐ethyl‐(3‐dimethylaminopropyl)‐carbodiimide hydrochloride (EDC) and NHS. Experiments were performed in a running buffer (1 × PBS with 5% DMSO). Each compound was serially diluted by a factor of two in the running buffer. The compound solution flowed through the surface of the chip at a flow rate of […]. Sensorgrams were analyzed and generated by Biacore Evaluation Software.
A general note: Surface plasmon resonance follows binding to a sensor surface in real time, without labels.
`Nc1c(C(=O)c2ccccc2)sc2nc3c(cc12)CCCC3` [compound 5]: the Ki was determined as 3.97 µM.
On the same count and under the same terms, under `CC1=NNc2nc3c(c(=O)n(Cc4c(F)cccc4Cl)c(=O)n3C)n2C1` [compound 1] stands 0.207 µM; under `COc1cccc(C(=O)Nc2ccc(Oc3ccccc3)cc2)c1OC` [compound 2], 0.517 µM; under `Cc1ccc(Cn2c(C)c(C)n3c4c(=O)[nH]c(=O)n(C)c4nc23)cc1` [compound 4], 2.5 µM.
`CCCC(=O)N1CCN(c2ccc(NC(=O)c3cccc(C)c3OC)cc2)CC1` [compound 11] displayed a Ki of 98 µM.
Molecule `Cc1cccc(C(=O)Nc2ccc3c(c2)OCCO3)c1[N+](=O)[O-]` [compound 7] displayed an inhibitory constant (Ki) of 6.9 µM.
`O=C(Nc1ccccc1)C1CC(=O)N(c2ccc3c4c(cccc24)CC3)C1` (stereo not shown) [compound 6]: the Ki was 4.5 µM.
For the molecule `O=c1[nH]c(=O)c2c(-c3cccc4ccccc34)ccnc2[nH]1` [compound 8], the inhibitory constant (Ki) came out at 10 µM.
As for `Cc1ccc(-c2nc3nc4ccccc4nc3n2CC2CCCO2)cc1` (stereo not shown) [compound 9], the Ki is 68.6 µM.
Turning to `Cc1nn(-c2nc3ccccc3[nH]2)c2c1C(=O)CC(c1ccccc1O)C2` (stereo not shown) [compound 10], the affinity, expressed as Ki, was 70 µM.

In another test the target is T315I Abl kinase domain.
Test: not given
Also on record: method as in PMID 17804707. The settings on record: experimental value, PDB ID 2v7a, CASF-2016; cited from earlier work.
As to `CO[C@@H](C(=O)N1Cc2[nH]nc(NC(=O)c3ccc(N4CCN(C)CC4)cc3)c2C1)c1ccccc1` [2v7a], the pKi is 8.3.

The target in the next test is aspartyl protease β-secretase (BACE).
Test: not given
Further details: method as in PMID 22468999. The settings on record: experimental value, PDB ID 3udh; cited from earlier work.
For the molecule `O=C1Nc2ccccc2[C@]12CCNC2` [3udh], the negative logarithm of the Ki (pKi) is 2.8.

A further test deals with HSP90.
Test: not given
Further details: method as in CASF-2016. To be noted: HSP90 ligand in CASF-2016, reference structure for docking; ref CASF-2016; cited from earlier work.
For `CCN(CC)C(=O)c1ccc(O)c(OC)c1` [2XDL], the pKi is listed as 3.10.

By Ki is commonly meant a dissociation constant, usually derived from enzyme kinetics or from competition with a known ligand. Lower therefore signals a stronger hold on the target. In general, pKi refers to the Ki on a negative log10 scale, so that one unit is a factor of ten.
